These results are taken from patent publication US9695155B2, “Herbicidal substituted pyrimidinyloxy benzene compounds” (E. I. DU PONT DE NEMOURS AND COMPANY, priority 2013, dated 2017).

The subject of one assay is giant foxtail. Kind of assay: Test A preemergence. The class given is in vivo, Setaria faberii. The following applies: for pest or weed control at 125 g/ha / pest or weed control at 500 g/ha: Setaria faberi, pre-emergence, 240 h. The essentials:
(§1)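 Greenhouse pot test, loam/sand soil. Formulation: non-phytotoxic solvent mix plus surfactant. Pre: directed spray onto soil after sowing. Post: plants at 1–2 leaf, 2–10 cm. Rated visually vs untreated controls at ~10 d, 0 (no effect) to 100 (complete control).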

A further assay deals with morningglory. Kind of assay: Test A preemergence. The class given is in vivo, Ipomoea spp. As to conditions: for pest or weed control at 500 g/ha: Ipomoea, pre-emergence, 240 h, read-out: Morningglory plant response rating. In outline: as §1
In assay [1] the test system is velvetleaf. Kind of assay: Test A preemergence. The class given is in vivo, Abutilon theophrasti. In outline:
as §1

A further assay concerns corn. Kind of assay: Test A preemergence. The format is in vivo, Zea mays. The essentials:
as §1

The next assay relates to large (Lg) crabgrass. Kind of assay: Test A postemergence. The format is in vivo, Digitaria sanguinalis. The following applies: for pest or weed control at 125 g/ha / pest or weed control at 500 g/ha: Digitaria sanguinalis, post-emergence, 240 h; for pest or weed control at 125 g/ha: read-out: Plant response rating, Crabgrass, Large; for pest or weed control at 500 g/ha: read-out: Plant response rating Crabgrass, Large. The essentials:
as §1

The next assay relates to pigweed. Kind of assay: Test A postemergence. The class given is in vivo, Amaranthus retroflexus. As to conditions: for pest or weed control at 125 g/ha / pest or weed control at 500 g/ha: Amaranthus retroflexus, post-emergence; for pest or weed control at 125 g/ha: read-out: Plant response rating, Pigweed; for pest or weed control at 500 g/ha: 240 h, read-out: Plant response rating Pigweed. In outline: as §1

Assay [2] concerns velvetleaf. Kind of assay: Test A postemergence. The class given is in vivo, Abutilon theophrasti. As to conditions: for pest or weed control at 500 g/ha: read-out: Plant response rating Velvetleaf. The essentials: as §1
Another assay deals with wheat. Kind of assay: Test A postemergence. The format is in vivo, Triticum aestivum. As to conditions: for plant injury at 125 g/ha / plant injury at 500 g/ha: Triticum aestivum, post-emergence, 240 h; for plant injury at 125 g/ha: read-out: Plant response rating, Wheat; for plant injury at 500 g/ha: read-out: Plant response rating Wheat. In outline: as §1
For another assay, the system named is barnyardgrass. Kind of assay: Test B flooded paddy test. The class given is in vivo, Echinochloa crus-galli. As to conditions: Flood, 250 g ai/ha, 0 to 100 scale where 0 is no effect and 100 is complete control; for pest or weed control at 250 g/ha: Echinochloa crus-galli, read-out: Plant response rating, Barnyardgrass. In outline: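 Post-emergence paddy-water application at the 2-leaf stage, with 3 cm flood kept for the whole test. Response was judged visually relative to controls after 13 to 15 greenhouse days, 0 indicating no effect and 100 complete control.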

The subject of another assay is wheat, winter. Kind of assay: Test C preemergence. The format is in vivo, Triticum aestivum. As to conditions: Triticum aestivum, pre-emergence. From the text: (§2) Seeds of plant species selected from blackgrass (Alopecurus myosuroides), Italian ryegrass (Lolium multiflorum), wheat, winter (winter wheat, Triticum aestivum), galium (catchweed bedstraw, Galium aparine), corn (Zea mays), large (Lg) crabgrass (Digitaria sanguinalis), giant foxtail (Setaria faberii), johnsongrass (Sorghum halepense), lambsquarters (Chenopodium album), morningglory (Ipomoea coccinea), yellow nutsedge (Cyperus esculentus), pigweed (Amaranthus retroflexus), ragweed (common ragweed, Ambrosia elatior), soybean (Glycine max), barnyardgrass (Echinochloa crus-galli), oilseed rape (Brassica napus), waterhemp (common waterhemp, Amaranthus rudis), kochia (Kochia scoparia), wild oat (Avena fatua), surinam grass (Brachiaria decumbens), foxtail, green (green foxtail, Setaria viridis), goosegrass (Eleusine indica), bromegrass, downy (downy bromegrass, Bromus tectorum), nightshade (eastern black nightshade, Solanum ptycanthum), cocklebur (common cocklebur, Xanthium strumarium), cupgrass, woolly (woolly cupgrass, Eriochloa villosa), bermudagrass (Cynodon dactylon), sunflower, (common oilseed sunflower, Helianthus annuus), Russian thistle (Salsola kali), and velvetleaf (Abutilon theophrasti) were planted into a blend of loam soil and sand and treated preemergence with test chemicals formulated in a non-phytotoxic solvent mixture which included a surfactant.
(§3) At the same time, plants selected from these crop and weed species and also barley, winter (winter barley, Hordeum vulgare), windgrass (Apera spica-venti), chickweed (common chickweed, Stellaria media), deadnettle (henbit deadnettle, Lamium amplexicaule), and canarygrass (littleseed canarygrass, Phalaris minor) were planted in pots containing Redi-Earth® planting medium (Scotts Company, 14111 Scottslawn Road, Marysville, Ohio 43041) comprising spaghnum peat moss, vermiculite, wetting agent and starter nutrients and treated with postemergence applications of test chemicals formulated in the same manner. Plants ranged in height from 2 to 18 cm (1- to 4-leaf stage) for postemergence treatments. Treated plants and controls were maintained in a greenhouse for 13 to 15 days, after which time all species were compared to controls and visually evaluated. Plant response ratings, summarized in Table C, are based on a scale of 0 to 100 where 0 is no effect and 100 is complete control. A dash (-) response means no test result.

In a further assay the test system is lambsquarters. Kind of assay: Test C preemergence. The format is in vivo, Chenopodium album. As to conditions: Chenopodium album, pre-emergence.
Text: as §2, §3

[3] abbreviates: 125 g ai/ha, 0 to 100 scale where 0 is no effect and 100 is complete control.
Setting [4] is: 500 g ai/ha, 0 to 100 scale, 0 no effect, 100 complete control, approx. 10 days.
Setting [5] is: 500 g ai/ha, 0 to 100 scale, 0 no effect, 100 complete control.
Where [6] appears, read: 500 g ai/ha, 0 to 100 scale, 0 no effect, 100 complete control, approx. 10 days, read-out: Foxtail, Giant plant response rating.
Where [7] appears, read: Abutilon theophrasti, pre-emergence, 240 h, 500 g ai/ha, 0 to 100 scale, 0 no effect, 100 complete control, approx. 10 days, read-out: Velvetleaf plant response rating.
Where [8] appears, read: Zea mays, pre-emergence, 240 h, 500 g ai/ha, 0 to 100 scale, 0 no effect, 100 complete control, approx. 10 days, read-out: Corn plant response rating.
The mark [9] stands for this setting: Abutilon theophrasti, post-emergence, 240 h, 500 g ai/ha, 0 to 100 scale, 0 no effect, 100 complete control.

Where two headings read alike, the source gives them in different places.

For `Clc1cnc(Oc2ccccc2-n2cc(Cl)cn2)nc1` [Compound 3], the entries for the “Foxtail, Giant plant response rating” value in the assay with giant foxtail (setting [3]) and with giant foxtail (setting [4]) were 90 and 100, respectively. Moreover, the “Morningglory plant response rating” value is recorded as 0 with morningglory (setting [3]) and 20 with morningglory (setting [4]). In addition, the “Velvetleaf plant response rating” value in the assay on velvetleaf [1] (setting [3]) is reported as 70; in the assay on velvetleaf [1] (setting [4]), 90. The “Corn plant response rating” value with corn (setting [3]) stood at 0; with corn (setting [4]), 10. In addition, the “Plant response rating, Crabgrass, Large” value was 10 in the assay on large (Lg) crabgrass (setting [3]) and 80 in the assay with large (Lg) crabgrass (setting [5]). Also, the “Plant response rating, Pigweed” value with pigweed (setting [3]) came to 90; in the assay with pigweed (setting [5]) it was 100. Also, the “Plant response rating, Velvetleaf” value in the assay with velvetleaf [2] (setting [3]) and in the assay on velvetleaf [2] (setting [5]) was 100 each time. For the same molecule, the “Plant response rating, Wheat” value in the assay with wheat (setting [3]) and in the assay on wheat (setting [5]) was 0 throughout. Further, the “Plant response rating, Barnyardgrass” value in the assay on barnyardgrass worked out at 0.

Regarding `FC(F)(F)c1ccn(-c2ccccc2Oc2ncc(Cl)cn2)n1` [Compound 2, 5-chloro-2-[2-[3-(trifluoromethyl)-1H-pyrazol-1-yl]phenoxy]pyrimidine], the pest or weed control at 125 g/ha in the assay with giant foxtail (125 g ai/ha, 0 to 100 scale where 0 is no effect and 100 is complete control, read-out: Foxtail, Giant plant response rating) amounted to 80%; in the assay on velvetleaf [1] (Abutilon theophrasti, pre-emergence, 240 h, 125 g ai/ha, 0 to 100 scale where 0 is no effect and 100 is complete control, read-out: Velvetleaf plant response rating) it was 30%; in the assay with large (Lg) crabgrass (setting [3]), 20%; in the assay on pigweed (setting [3]) it was 60%. In addition, the pest or weed control at 500 g/ha worked out at 100% in the assay with giant foxtail (setting [6]); 20% in the assay with morningglory (setting [4]); 70% in the assay on velvetleaf [1] (setting [7]); 60% in the assay on large (Lg) crabgrass (setting [5]); 100% in the assay on pigweed (setting [5]); 60% in the assay with velvetleaf [2] (setting [9]). Further, the plant injury at 125 g/ha in the assay on corn (Zea mays, pre-emergence, 240 h, 125 g ai/ha, 0 to 100 scale where 0 is no effect and 100 is complete control, read-out: Corn plant response rating) worked out at 0%; in the assay with wheat (setting [3]), 0%. Further, the plant injury at 500 g/ha in the assay on corn (setting [8]) amounted to 30%; in the assay on wheat (setting [5]) it was 0%. In the assay on barnyardgrass, the pest or weed control at 250 g/ha was 0%.

As for `FC(F)(F)c1cnn(-c2ccccc2Oc2ncc(Br)cn2)c1` [Compound 18, 5-bromo-2-[2-[4-(trifluoromethyl)-1H-pyrazol-1-yl]phenoxy]pyrimidine], the pest or weed control at 125 g/ha with giant foxtail (125 g ai/ha, 0 to 100 scale where 0 is no effect and 100 is complete control, read-out: Plant response rating, Foxtail, Giant) amounted to 100%; in the assay on large (Lg) crabgrass (setting [3]) it was 70%; in the assay on pigweed (setting [3]), 100%; in the assay on velvetleaf [2] (Abutilon theophrasti, post-emergence, 240 h, 125 g ai/ha, 0 to 100 scale where 0 is no effect and 100 is complete control, read-out: Plant response rating, Velvetleaf), 100%; with lambsquarters (125 g ai/ha, preemergence, scale 0 (no effect) to 100 (complete control), read-out: Lambsquarters plant response rating), 65%. Also, the pest or weed control at 500 g/ha with giant foxtail (setting [6]) was 100%; with morningglory (setting [4]), 40%; with velvetleaf [1] (setting [7]), 90%; with large (Lg) crabgrass (setting [5]) it was 100%; in the assay with pigweed (setting [5]), 100%; in the assay on velvetleaf [2] (setting [9]), 100%. Besides, the “Plant response rating, Morningglory” value with morningglory (setting [3]) was 0. Further, in the assay on velvetleaf [1] (setting [3]), the “Plant response rating, Velvetleaf” value turned out to be 90. Also, in the assay on corn (Zea mays, pre-emergence, 240 h, 125 g ai/ha, 0 to 100 scale where 0 is no effect and 100 is complete control), the Corn plant response rating (crop injury, 0 = no effect, 100 = complete kill) at 125 g/ha was found to be 0%. Moreover, the plant injury at 500 g/ha in the assay on corn (setting [8]) turned out to be 10%; in the assay on wheat (setting [5]), 50%. For the same molecule, the plant injury at 125 g/ha in the assay with wheat (setting [3]) was determined as 50%; with wheat, winter (125 g ai/ha, preemergence, scale 0 (no effect) to 100 (complete control), read-out: Wheat plant response rating) it was 35%. Further, the pest or weed control at 250 g/ha in the assay with barnyardgrass came to 30%; in the assay with lambsquarters (250 g ai/ha, preemergence, scale 0 (no effect) to 100 (complete control), read-out: Lambsquarters plant response rating), 80%. In addition, the plant injury at 62 g/ha in the assay with wheat, winter (62 g ai/ha, preemergence, scale 0 (no effect) to 100 (complete control), read-out: Wheat plant response rating) stood at 5%. Besides, in the assay with wheat, winter (250 g ai/ha, preemergence, scale 0 (no effect) to 100 (complete control), read-out: Wheat plant response rating), the plant injury at 250 g/ha was 35%. Besides, the plant injury at 31 g/ha in the assay on wheat, winter (Preemergence, 31 g ai/ha, scale 0 to 100, 0 no effect, 100 complete control, read-out: Plant response rating, Wheat) turned out to be 0%. Besides, the pest or weed control at 62 g/ha in the assay on lambsquarters (62 g ai/ha, preemergence, scale 0 (no effect) to 100 (complete control), read-out: Lambsquarters plant response rating) came to 50%. The pest or weed control at 31 g/ha with lambsquarters (Preemergence, 31 g ai/ha, scale 0 to 100, 0 no effect, 100 complete control, read-out: Plant response rating, Lambsquarters) worked out at 30%.
